Structures are written as SMILES. A value given as a limit tells only on which side of the number the result lay.

For the assay, the target named is T1, human TGR5 (Homo sapiens, UniProt Q8TDU6).
T1 construct: expressed in transfected cells; host or cells: HEK293
T1 sequence (Q8TDU6 1-330): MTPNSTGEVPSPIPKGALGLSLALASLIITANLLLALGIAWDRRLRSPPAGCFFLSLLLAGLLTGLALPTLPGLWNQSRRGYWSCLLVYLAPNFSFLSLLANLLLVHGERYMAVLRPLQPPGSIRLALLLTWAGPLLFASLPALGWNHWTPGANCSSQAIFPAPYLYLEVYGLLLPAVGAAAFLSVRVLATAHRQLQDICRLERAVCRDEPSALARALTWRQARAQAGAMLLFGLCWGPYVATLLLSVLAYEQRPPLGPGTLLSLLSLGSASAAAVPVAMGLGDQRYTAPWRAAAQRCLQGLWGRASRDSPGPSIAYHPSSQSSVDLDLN
Nature of the assay: Cell-based TGR5 assay (cAMP generation, HTRF). To be noted: HEK293 cells stably transfected with human TGR5; cAMP by HTRF; 30 minutes at 37° C.; read-out: pEC50 Human TGR5 (converted). The essentials:
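Read-out was HTRF detection of cAMP, converted to concentration via a standard curve and fitted (3-parameter logistic) for pEC50 and maximal response. Agonist stimulation used HEK293 cells stably transfected with human TGR5, incubated 30 min at 37° C in IBMX-containing buffer at 0.05 nM to 10 μM compound.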
As to `CCN(CCCCNC(=O)NC[C@H](O)[C@@H](O)[C@H](O)[C@H](O)CO)S(=O)(=O)c1ccc(Cl)c(CNC2(c3cnccc3-c3ccccc3OC3CC3)CC2)c1` [Compound I-473, 1-(4-{N-ethyl4-chloro-3-[({1-[4-(2-cyclopropoxyphenyl)pyridin-3-yl]cyclopropyl}amino)methyl]benzenesulfonamido}butyl)-3-[(2S,3R,4R,5R)-2,3,4,5,6-pentahydroxyhexyl]urea], the EC50 is less than 100 nM. The same measure for `CC(CCCC(=O)N1CCN(CC(=O)NC[C@H](O)[C@@H](O)[C@H](O)[C@H](O)CO)CC1)c1ccc(Cl)c(CNC2(c3cnccc3-c3ccccc3OC3CC3)CC2)c1` (stereo partly drawn) [Compound I-321, 2-[4-(5-{4-chloro-3-[({1-[4-(2-cyclopropoxyphenyl)pyridin-3-yl]cyclopropyl}amino)methyl]phenyl}hexanoyl)piperazin-1-yl]-N-[(2S,3R,4R,5R)-2,3,4,5,6-pentahydroxyhexyl]acetamide]: less than 100 nM.

Take `CCOC(=O)NCCN(CCCSc1ccc(Cl)c(COC2(c3cnccc3-c3ccccc3OC3CC3)CC2)c1)C(=O)[C@@H](O)[C@@H](O)[C@H](O)[C@@H](O)CO` [Compound I-597, ethyl N-{2-[(2S,3S,4R,5S)-N-(3-{[4-chloro-3-({1-[4-(2-cyclopropoxyphenyl)pyridin-3-yl]cyclopropoxy}methyl)phenyl]sulfanyl}propyl)-2,3,4,5,6-pentahydroxyhexanamido]ethyl}carbamate]: the EC50 is 126 to 1000 nM. Take `CN(C[C@H](O)[C@@H](O)[C@H](O)[C@H](O)CO)C(=O)CCCS(=O)(=O)c1ccc(Cl)c(CNC2(c3cnccc3-c3ccccc3OC3CC3)CC2)c1` [Compound I-646, 4-{4-chloro-3-[({1-[4-(2-cyclopropoxyphenyl)pyridin-3-yl]cyclopropyl}amino)methyl]benzenesulfonyl}-N-methyl-N-[(2S,3R,4R,5R)-2,3,4,5,6-pentahydroxyhexyl]butanamide]: the EC50 was less than 100 nM. The same measure for `O=C(NCC1CCCN(S(=O)(=O)c2ccc(Cl)c(COC3(c4cnccc4-c4ccccc4OC4CC4)CC3)c2)C1)NC[C@H](O)[C@@H](O)[C@H](O)[C@H](O)CO` (stereo in doubt) [Compound I-426, 1-({1-[4-chloro-3-({1-[4-(2-cyclopropoxyphenyl)pyridin-3-yl]cyclopropoxy}methyl)benzenesulfonyl]piperidin-3-yl}methyl)-3-[(2S,3R,4R,5R)-2,3,4,5,6-pentahydroxyhexyl]urea]: less than 100 nM. The same measure for `Cc1ccc(C(C)CCCN(C(=O)[C@@H](O)[C@@H](O)[C@H](O)[C@@H](O)CO)C2CCS(=O)(=O)CC2)cc1CNC1(c2cnccc2-c2ccccc2OC2CC2)CC1` (stereo partly drawn) [Compound I-306, (2S,3S,4R,5S)-N-(4-{3-[({1-[4-(2-cyclopropoxyphenyl)pyridin-3-yl]cyclopropyl}amino)methyl]-4-methylphenyl}pentyl)-N-(1,1-dioxo-1λ^6-thian-4-yl)-2,3,4,5,6-pentahydroxyhexanamide]: less than 100 nM; for `CN(CCCCNC(=O)NC[C@H](O)[C@@H](O)[C@H](O)[C@H](O)CO)S(=O)(=O)c1cc(COC2(c3cnccc3-c3ccccc3OC3CC3)CC2)c(Cl)cc1Cl` [Compound I-467, 1-{4-[N-methyl2,4-dichloro-5-({1-[4-(2-cyclopropoxyphenyl)pyridin-3-yl]cyclopropoxy}methyl)benzenesulfonamido]butyl}-3-[(2S,3R,4R,5R)-2,3,4,5,6-pentahydroxyhexyl]urea]: less than 100 nM. For `CC(C)CN(CCCCNC(=O)NC[C@H](O)[C@@H](O)[C@H](O)[C@H](O)CO)S(=O)(=O)c1ccc(Cl)c(COC2(c3cnccc3-c3ccccc3OC3CC3)CC2)c1` [Compound I-762, 4-chloro-3-((1-(4-(2-cyclopropoxyphenyl)pyridin-3-yl)cyclopropoxy)methyl)-N-isobutyl-N-(4-(3-((2S,3R,4R,5R)-2,3,4,5,6-pentahydroxyhexyl)ureido)butyl)benzenesulfonamide] the value was less than 100 nM; for `O=C(CN1CCN(S(=O)(=O)c2ccc(Cl)c(COC3(c4cnccc4-c4ccccc4OC4CC4)CC3)c2)CC1)NC[C@H](O)[C@@H](O)[C@H](O)[C@H](O)CO` [Compound I-440, 2-{4-[4-chloro-3-({1-[4-(2-cyclopropoxyphenyl)pyridin-3-yl]cyclopropoxy}methyl)benzenesulfonyl]piperazin-1-yl}-N-[(2S,3R,4R,5R)-2,3,4,5,6-pentahydroxyhexyl]acetamide], 126 to 1000 nM; for `Cc1ccc(C(CO)CCCNC(=O)[C@@H](O)[C@@H](O)[C@H](O)[C@@H](O)CO)cc1CNC1(c2cnccc2-c2ccccc2OC2CC2)CC1` (stereo partly drawn) [Compound I-386, (2S,3S,4R,5S)-N-(4-{3-[({1-[4-(2-cyclopropoxyphenyl)pyridin-3-yl]cyclopropyl}amino)methyl]-4-methylphenyl}-5-hydroxypentyl)-2,3,4,5,6-pentahydroxyhexanamide], less than 100 nM. With `COCCN(CCCCc1cc(Cl)c(COC2(c3cnccc3-c3ccccc3OC3CC3)CC2)cc1C)C(=O)NC[C@H](O)[C@@H](O)[C@H](O)[C@H](O)CO` [Compound I-116, 1-{4-[5-chloro-4-({1-[4-(2-cyclopropoxyphenyl)pyridin-3-yl]cyclopropoxy}methyl)-2-methylphenyl]butyl}-1-(2-methoxyethyl)-3-[(2S,3R,4R,5R)-2,3,4,5,6-pentahydroxyhexyl]urea], the EC50 was less than 100 nM. For `O=C(NC[C@H](O)[C@@H](O)[C@H](O)[C@H](O)CO)c1cccc(OCc2ccc(Cl)c(COC3(c4cnccc4-c4ccccc4OC4CC4)CC3)c2)c1` [Compound I-727, 3-((4-chloro-3-((1-(4-(2-cyclopropoxyphenyl)pyridin-3-yl)cyclopropoxy)methyl)benzyl)oxy)-N-((2S,3R,4R,5R)-2,3,4,5,6-pentahydroxyhexyl)benzamide] the value was 126 to 1000 nM; for `Clc1ccc(Cl)c(COC2(c3cnccc3-c3ccccc3Cl)CC2)c1` [Compound I-768, 4-(2-chlorophenyl)-3-(1-((2,5-dichlorobenzyl)oxy)cyclopropyl)pyridine], 126 to 1000 nM. For `CN(C[C@H](O)[C@@H](O)[C@H](O)[C@H](O)CO)C(=O)CCSc1ccc(Cl)c(CNC2(c3cnccc3-c3ccccc3OC3CC3)CC2)c1` [Compound I-676, 3-({4-chloro-3-[({1-[4-(2-cyclopropoxyphenyl)pyridin-3-yl]cyclopropyl}amino)methyl]phenyl}sulfanyl)-N-methyl-N-[(2S,3R,4R,5R)-2,3,4,5,6-pentahydroxyhexyl]propanamide], the EC50 is less than 100 nM. For `Cc1cc(COC2(c3cnccc3-c3ccccc3OC3CC3)CC2)c(Cl)cc1CCCCNC(=O)N[C@@H](C)C(=O)N[C@@H](C)C(=O)N[C@@H](C)C(=O)O` [Compound I-112, (2S)-2-[(2S)-2-[(2S)-2-[({4-[5-chloro-4-({1-[4-(2-cyclopropoxyphenyl)pyridin-3-yl]cyclopropoxy}methyl)-2-methylphenyl]butyl}carbamoyl)amino]propanamido]propanamido]propanoic acid] the value was less than 100 nM; for `CN(C[C@H](O)[C@@H](O)[C@H](O)[C@H](O)CO)C(=O)NCCCCCc1cc(Cl)c(CNC2(c3cnccc3-c3ccccc3OC3CC3)CC2)cc1Cl` (stereo in doubt) [Compound I-163, 1-(5-{2,5-dichloro-4-[({1-[4-(2-cyclopropoxyphenyl)pyridin-3-yl]cyclopropyl}amino)methyl]phenyl}pentyl)-3-methyl-3-[(2S,3R,4R,5R)-2,3,4,5,6-pentahydroxyhexyl]urea], less than 100 nM; for `O=C(NC[C@H](O)[C@@H](O)[C@H](O)[C@H](O)CO)N[C@H]1CC[C@@H](NS(=O)(=O)c2ccc(Cl)c(COC3(c4cnccc4-c4ccccc4OC4CC4)CC3)c2)CC1` [Compound I-419, 3-[(2S,3R,4R,5R)-2,3,4,5,6-pentahydroxyhexyl]-1-[(1s,4s)-4-[4-chloro-3-({1-[4-(2-cyclopropoxyphenyl)pyridin-3-yl]cyclopropoxy}methyl)benzenesulfonamido]cyclohexyl]urea], less than 100 nM.

Consider `CNC(=O)CN(C[C@H](O)[C@@H](O)[C@H](O)[C@H](O)CO)C(=O)CCCC(C)c1ccc(Cl)c(CNC2(c3cnccc3-c3ccccc3OC3CC3)CC2)c1` (stereo partly drawn) [Compound I-336, 5-{4-chloro-3-[({1-[4-(2-cyclopropoxyphenyl)pyridin-3-yl]cyclopropyl}amino)methyl]phenyl}-N-[(methylcarbamoyl)methyl]-N-[(2S,3R,4R,5R)-2,3,4,5,6-pentahydroxyhexyl]hexanamide], for which the EC50 was less than 100 nM. For `Clc1ccc(C2CC2)cc1COC1(c2cnccc2-c2ccccc2OC2CC2)CC1` [Compound I-53, 3-{1-[(2-chloro-5-cyclopropylphenyl)methoxy]cyclopropyl}-4-(2-cyclopropoxyphenyl)pyridine] the value was less than 100 nM; for `CN(CC(=O)O)C[C@H](NC(=O)CCCCc1cc(Cl)c(COC2(c3cnccc3-c3ccccc3OC3CC3)CC2)cc1Cl)[C@@H](O)[C@H](O)[C@H](O)CO` (stereo in doubt) [Compound I-164, 2-{[(2S,3R,4S,5R)-2-{5-[2,5-dichloro-4-({1-[4-(2-cyclopropoxyphenyl)pyridin-3-yl]cyclopropoxy}methyl)phenyl]pentanamido}-3,4,5,6-tetrahydroxyhexyl](methyl)amino}acetic acid], less than 100 nM.
